Data: ChEMBL document CHEMBL1139605, “Novel ketal ligands for the glucocorticoid receptor: in vitro and in vivo activity” (Bioorg Med Chem Lett, 2005)

What was measured:
[1] = target: T1, Glucocorticoid receptor (Homo sapiens, UniProt P04150); test: Inhibition of human glucocorticoid receptor alpha isoform
T1 sequence (P04150 whole entry): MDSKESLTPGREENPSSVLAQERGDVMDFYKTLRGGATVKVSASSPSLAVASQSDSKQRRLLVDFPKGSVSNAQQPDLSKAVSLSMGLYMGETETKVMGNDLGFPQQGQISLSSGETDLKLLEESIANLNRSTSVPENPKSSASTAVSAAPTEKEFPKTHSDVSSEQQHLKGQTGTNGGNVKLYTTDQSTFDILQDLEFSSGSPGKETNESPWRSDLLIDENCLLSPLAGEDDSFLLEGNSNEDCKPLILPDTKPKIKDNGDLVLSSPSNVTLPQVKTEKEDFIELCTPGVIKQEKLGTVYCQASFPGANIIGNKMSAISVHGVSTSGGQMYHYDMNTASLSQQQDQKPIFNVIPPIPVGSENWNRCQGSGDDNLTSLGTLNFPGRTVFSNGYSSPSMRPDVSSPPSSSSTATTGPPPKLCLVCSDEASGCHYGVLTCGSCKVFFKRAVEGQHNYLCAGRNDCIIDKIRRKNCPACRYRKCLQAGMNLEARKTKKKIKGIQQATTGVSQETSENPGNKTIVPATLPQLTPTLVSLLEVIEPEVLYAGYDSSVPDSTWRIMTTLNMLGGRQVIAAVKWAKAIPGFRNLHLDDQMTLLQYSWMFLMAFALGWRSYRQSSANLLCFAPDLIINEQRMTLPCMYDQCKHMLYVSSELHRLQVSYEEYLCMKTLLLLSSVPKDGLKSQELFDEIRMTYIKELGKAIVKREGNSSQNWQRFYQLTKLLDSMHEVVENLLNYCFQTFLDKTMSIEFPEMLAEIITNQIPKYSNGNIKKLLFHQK

[2] = system: A549; test: Effective concentration for inhibition of interleukin-6 in human A549 lung carcinoma cell line using 47% radiolabeled Dexamethasone; type: functional, cell-based
[3] = species: Mus musculus; test: Effective concentration required for inhibition of interleukin-6 in mouse thioglycolate-elicited peritoneal exudate cell line using 57% radiolabeled Dexamethasone; type: functional

In the case of `C=C[C@H]1CO[C@]2(CCC3=Cc4c(cnn4-c4ccc(F)cc4)C[C@@]32C)O1`, the IC50 [1] is reported as 0.0056 µM, the EC50 [2] is reported as 0.025 µM and the EC50 [3] is reported as 0.183 µM.
